Where two headings read alike, the source gives them in different places.
How the values were obtained:
[1] = Pharmacokinetic study (mouse), levels of API after prodrug dosing; format: in vivo; settings: mice, 10 mg/kg p.o., 1 h, 2 h, 4 h; for brain levels of API (example 1 compound): brain at 0.5 h, LCMS (FIG. 2); for liver levels of API (example 1 compound): liver at 0.5 h, LCMS (FIG. 3); for plasma levels of API (example 1 compound): plasma at 0.5 h, LCMS (FIG. 1)
Experimental: Pharmacokinetic studies (mouse) were performed on the example 1, 6-P, 8-P, and 11-P compounds of the present invention. The example 1, 6-P, 8-P, and 11-P compounds were dosed in mice at 10 mg/kg p.o. (n=2). Plasma, brain, and liver were harvested at 0.5 h, 1 h, 2 h, and 4 h. The samples were analyzed by LCMS to determine levels of the example 1 compound, i.e., the active pharmaceutical ingredient (API) for prodrug examples 6-P, 8-P, and 11-P.

[2] = Microsome stability assay, human liver microsomes; format: in vitro ADME; settings: pH 7.4, 1 μM test compound, NADPH 1 mM, 37° C., 0-40 mins, read-out: HLM t1/2
Experimental: (§1) Microsome Stability Assay Protocol
(§2) Human liver microsomes (Corning #452117 lot 38291) or Mouse liver microsomes (Corning #452701, lot #6328004) were separately combined at a final concentration of […] with KxPO4 pH 7.4 (100 mM), MgCl2 (10 mM), and test compound (1 μM) and pre-incubated (10 min, 37° C.). Next, NADPH (1 mM) was added to begin reactions (total volume 100 μL). At various time points (0, 10, 20, and 40 mins), reactions were quenched with Clem stop solution (100 μL, 625 ng/mL) (Cyprotex) in Acetonitrile. Samples were centrifuged at 4000 g for 20 mins, diluted (75 μL into 75 μL 0.1% formic acid in water), and analyzed by LC-MS/MS.

[3] = system: TNF-α production by BV2 cells or PBMC; assay: Cellular assay to measure TNF-α inhibition (LPS-stimulated, ELISA); format: cell-based, murine (BV2) or human (PBMC); settings: BV2 cells or PBMC (not specified), LPS 100 ng/ml over 24 hours, relative to DMSO vehicle; compound concentration not stated
Source text: Oxidative metabolism exerts an anti-inflammatory effect on myeloid cell phenotype (O'Neill L A, Front Immunol. 2014) and Ppargc1a can promote this energy metabolic pathway (Spiegelman BM, Novartis Found Symp. 2007). Thus, pharmacological activation of Ppargc1a would be expected to inhibit the inflammatory response of myeloid cells. This phenomenon can be measured in cultures by a TNF-α inhibition assay.
Cellular Assay Protocol to Measure TNF-α Inhibition
The murine myeloid cell line BV2 or human peripheral blood mononuclear cells (PBMC) are cultured in RPMI 1640 media (Cat #11875119, Gibco) supplemented with 10% fetal bovine serum and 1% L-glutamine 1% penicillin. These cells are then stimulated with 100 ng/ml of lipopolysaccharide (LPS, O111:B34, Cat # L2630, Sigma) over 24 hours. LPS stimulation results in the secretion of the inflammatory cytokine TNF-α by BV2 cells or PBMC, which can be quantified by ELISA in culture supernatant samples per manufacturer's protocol (Cat #558273 for BV2 and Cat #558299 for PBMC, BD Biosciences). To determine whether exampl compounds 1-78 inhibit TNF-α production by BV2 cells or PBMC, the cells were cultured in the presence of the compounds at different concentrations, and fold reduction in TNF-α production relative to TNF-α production by the same cells cultured in the presence of dimethylsulfoxide (as vehicle control) was determined.

[4] = Caco-2 permeability assay; settings: human, Caco-2, pH 7.4, with elacridar (concentration not stated)
Caco-2 cells [5] = assay: Caco-2 permeability assay; settings: 10 μM, HBSS pH 7.4, 37° C., 2 h; for Caco2 A → B: without elacridar; for Caco2 A → B w/ elacridar: with elacridar as transporter inhibitor
Experimental: Caco-2 Permeability Assay Protocol
(§3) Caco-2 cells were maintained in DMEM in an atmosphere of 5% CO2. For transport experiments 5×10^5 cells/well of were seeded on polycarbonate filter inserts and allowed to grow and differentiate for 21±4 days before the cell monolayers were used for experiments. Apparent permeability coefficients were determined for A→B and B→A directions with and without the presence of elacridar as a transporter inhibitor. Up to three test items and reference compounds were dissolved in Hank's balanced salt solution at pH 7.4 to yield a final concentration of 10 μM.
(§4) The assays were performed in HBSS containing 25 mM HEPES (pH 7.4) at 37° C. Prior to the study, the monolayers were washed in prewarmed HBSS. At the start of the experiments prewarmed HBSS containing the test items was added to the donor side of the monolayer and HBSS without test items was added to the receiver side. Aliquots of the receiver side were taken over the 2 h incubation period; aliquots of the donor side were taken at 0 hand 2 h. Aliquots were diluted with an equal volume of methanol/water with 0.1% formic acid containing the internal standard. The mixture was analyzed by LC-MS/MS. The apparent permeability coefficients (Papp) were calculated using the formula: Papp=(dCrec/dt)/(A×C0,donor)]×106 with dCrev/dt being the change in concentration in the receiver compartment with time, C0,donor the concentration in the donor compartment at time 0, and A the area of the compartment with the cells.

[6] = Microsome stability assay, mouse liver microsomes; format: in vitro ADME; settings: pH 7.4, 1 μM test compound, NADPH 1 mM, 37° C., 0-40 mins, read-out: MLM t1/2
Experimental: as §1, §2

in vitro = settings: human, Caco-2, pH 7.4
Experimental: Caco-2 Permeability Assay Protocol
as §3, §4

Caco-2 cells [7] = settings: human, Caco-2, 2 h, 10 μM, pH 7.4
Experimental: Caco-2 Permeability Assay Protocol
as §3, §4

Row | brain levels of API (example 1 compound) [1] | liver levels of API (example 1 compound) [1] | plasma levels of API (example 1 compound) [1] | half-life at 1 μM [2] | Papp A→B at 2 h, 10 μM [4] | Caco2 B → A (Caco-2 cells [5]) | Caco2 A → B (Caco-2 cells [5]) | half-life at 1 μM [6] | Caco2 A → B w/ elacridar (Caco-2 cells [5]) | SMILES | TNF α Inhibition [3] | Papp A→B at 2 h, 10 μM (in vitro) | Caco2 B → A (Caco-2 cells [7])
1 | measurable amounts | measurable amounts | measurable amounts | – | – | – | – | – | – | CC(C)(C)c1ccc(-c2nc3ccccc3n2COC(=O)c2ccc(CN)cc2)cc1.Cl [Example 8-P, (4-(((2-(4-(tert-butyl)phenyl)-1H-benzo[d]imidazol-1-yl)methoxy)carbonyl)-phenyl)methylammonium hydrochloride] | – | – | –
2 | measurable amounts | measurable amounts | measurable amounts | – | – | – | – | – | – | CC(C)(C)c1ccc(-c2nc3ccccc3n2COP(=O)([O-])[O-])cc1.[Na+].[Na+] [Example 11-P, Disodium ((2-(4-(tert-butyl)phenyl)-1H-benzo[d]imidazol-1-yl)methyl) phosphate] | – | – | –
3 | – | – | – | 83.8 min | 0.0408 ×10⁻⁶ cm/s | 1.2 nm/s | 0.878 nm/s | 110 min | – | CC(C)(C)c1ccc(-c2nc3cc(C(F)(F)F)ccc3[nH]2)cc1 [Example 42, 2-(4-tert-Butylphenyl)-5-(trifluoromethyl)-1H-benzo[d]imidazole] | A (A = >80% inh.) | – | –
4 | – | – | – | 6.9 min | 0.86 ×10⁻⁶ cm/s | 30.9 nm/s | 21 nm/s | 4.7 min | – | CC(C)(C)c1cccc(-c2nc3ccccc3[nH]2)c1 [Example 58, 2-(3-tert-Butylphenyl)-1H-benzo[d]imidazole] | A (A = >80% inh.) | – | –
5 | – | – | – | 11.5 min | 0.858 ×10⁻⁶ cm/s | – | 9.86 nm/s | 8.4 min | – | CC(C)(C)c1ccc(-c2cn3ccccc3n2)cc1 [Example 5, 2-(4-tert-Butylphenyl)imidazo[1,2-a]pyridine] | A (A = >80% inh.) | – | –
6 | – | – | – | 42.5 min | 2.05 ×10⁻⁶ cm/s | 45.4 nm/s | 23.6 nm/s | 20.6 min | – | CC(C)(C)c1ccc(-c2nc3cc(N)ccc3[nH]2)cc1 [Example 44, 2-(4-tert-Butylphenyl)-1H-benzo[d]imidazol-5-amine] | A (A = >80% inh.) | – | –
7 | – | – | – | 99.2 min | 0.13 ×10⁻⁶ cm/s | 8.42 nm/s | 11.1 nm/s | 46.7 min | – | CC(C)(C)c1ccc(-c2nc3c(F)cc(F)cc3[nH]2)cc1 [Example 57, 2-(4-tert-Butylphenyl)-4,6-difluoro-1H-benzo[d]imidazole] | A (A = >80% inh.) | – | –
8 | – | – | – | 25.4 min | 3.11 ×10⁻⁶ cm/s | – | 47.8 nm/s | 8.3 min | – | Nc1ccc(-c2nc3ccccc3[nH]2)cc1 [Example 76, 2-(4-Aminophenyl)-1H-benzo[d]imidazole] | A (A = >80% inh.) | – | –
9 | – | – | – | 59.8 min | 0.0336 ×10⁻⁶ cm/s | 1.31 nm/s | – | 132 min | 0.005 nm/s | CC(C)(C)c1ccc(-c2nc3c(F)c(F)c(F)c(F)c3[nH]2)cc1 [Example 63, 2-(4-tert-Butylphenyl)-4,5,6,7-tetrafluoro-1H-benzo[d]imidazole] | A (A = >80% inh.) | – | –
10 | – | – | – | 112 min | 0.00126 ×10⁻⁶ cm/s | 2.54 nm/s | – | 83.1 min | 0.792, nm/s | CC(C)(C)c1ccc(-c2nc3c(F)c(F)c(F)cc3[nH]2)cc1 [Example 64, 2-(4-tert-Butylphenyl)-4,5,6-trifluoro-1H-benzo[d]imidazole] | A (A = >80% inh.) | – | –
11 | measurable amounts | measurable amounts | measurable amounts | – | – | – | – | – | – | CC(C)(C)c1ccc(-c2nc3ccccc3n2COC(=O)CCC(=O)O)cc1 [Example 6-P, 4-((2-(4-(tert-Butyl)phenyl)-1H-benzo[d]imidazol-1-yl)methoxy)-4-oxobutanoic acid] | – | – | –

Row | SMILES | brain levels of API (example 1 compound) [1] | liver levels of API (example 1 compound) [1] | plasma levels of API (example 1 compound) [1] | half-life at 1 μM [2] | Papp A→B at 2 h, 10 μM [4] | Caco2 B → A (Caco-2 cells [5]) | Caco2 A → B (Caco-2 cells [5]) | half-life at 1 μM [6] | Caco2 A → B w/ elacridar (Caco-2 cells [5]) | TNF α Inhibition [3] | Papp A→B at 2 h, 10 μM (in vitro) | Caco2 B → A (Caco-2 cells [7])
12 | CC(C)(C)c1ccc(-c2nc3ccccc3[nH]2)cc1 [Example 1, 2-(4-(tert-Butyl)phenyl)-1H-benzo[d]imidazole] | – | – | – | 14 min | – | – | – | 16.7 min | – | A (A = >80% inh.) | 0.659 ×10⁻⁶ cm/s | 31.5 nm/s
